Experimental data reported in publication PMC11274128, “Modification and Synergistic Studies of a Novel Frog Antimicrobial Peptide against Pseudomonas aeruginosa Biofilms” (Antibiotics, 2024).
Converted amounts (≈) assume the structure as drawn.

Key:
[1] = system: S. aureus (ATCC 6538); assay: microbe, parasite or virus in culture; type: cell-based, Staphylococcus aureus; details: Staphylococcus aureus, ATCC6538, planktonic S. aureus ATCC 6538; for MIC: 37 °C, nine repeats of three independent experiments, read-out: MIC; for MBC: lowest concentration killing 99.9% of inoculum, read-out: MBC
Excerpt: (§1) The minimum inhibitory concentration (MIC) is the minimum concentration of an antimicrobial agent that prevents the visible growth of a bacterium or bacteria. The MIC is an important piece of data for research on new antimicrobial agents and helps in the effective selection of antibiotics to improve the success of treatment. The minimum bactericidal concentration (MBC) is defined as the lowest antibiotic concentration that kills 99.9% of the inoculum. This study mainly contained eight different microorganisms, which were Staphylococcus aureus (ATCC 6538), methicillin-resistant Staphylococcus aureus (NCTC 12493), Enterococcus faecalis (NCTC 12697), Escherichia coli (ATCC 8739), Klebsiella pneumoniae (ATCC 43816), Pseudomonas aeruginosa (ATCC CRM 9027), Acinetobacter baumannii (BAA 747), and Candida albicans (ATCC 10231). The bacteria were incubated in the compatible medium at 37 °C overnight.

[2] = system: MRSA (NCTC 12493); assay: microbe, parasite or virus in culture; type: cell-based, methicillin-resistant Staphylococcus aureus; details: Staphylococcus aureus, planktonic MRSA NCTC 12493; for MIC: 37 °C, nine repeats of three independent experiments, read-out: MIC; for MBC: lowest concentration killing 99.9% of inoculum, read-out: MBC
Excerpt: as §1

[3] = system: E. faecalis (NCTC 12697); assay: microbe, parasite or virus in culture; type: cell-based, Enterococcus faecalis; details: Enterococcus faecalis, NCTC12697, planktonic E. faecalis NCTC 12697; for MIC: 37 °C, nine repeats of three independent experiments, read-out: MIC; for MBC: lowest concentration killing 99.9% of inoculum, read-out: MBC
Excerpt: as §1

[4] = system: E. coli (ATCC 8739); assay: microbe, parasite or virus in culture; type: cell-based, Escherichia coli; details: Escherichia coli, ATCC8739, planktonic E. coli ATCC 8739; for MIC: 37 °C, nine repeats of three independent experiments, read-out: MIC; for MBC: lowest concentration killing 99.9% of inoculum, read-out: MBC
Excerpt: as §1

[5] = system: K. pneumoniae (ATCC 43816); assay: microbe, parasite or virus in culture; type: cell-based, Klebsiella pneumoniae; details: Klebsiella pneumoniae, ATCC43816, planktonic K. pneumoniae ATCC 43816; for MIC: 37 °C, nine repeats of three independent experiments, read-out: MIC; for MBC: lowest concentration killing 99.9% of inoculum, read-out: MBC
Excerpt: as §1

[6] = system: P. aeruginosa (ATCC CRM 9027); assay: microbe, parasite or virus in culture; type: cell-based, Pseudomonas aeruginosa; details: Pseudomonas aeruginosa, planktonic P. aeruginosa ATCC CRM 9027; for MIC: 37 °C, nine repeats of three independent experiments, read-out: MIC; for MBC: lowest concentration killing 99.9% of inoculum, read-out: MBC
Excerpt: as §1

[7] = system: A. baumannii (BAA 747); assay: microbe, parasite or virus in culture; type: cell-based, Acinetobacter baumannii; details: Acinetobacter baumannii, BAA747, planktonic A. baumannii BAA 747; for MIC: 37 °C, nine repeats of three independent experiments, read-out: MIC; for MBC: lowest concentration killing 99.9% of inoculum, read-out: MBC
Excerpt: as §1

[8] = system: S. aureus ATCC 6538 biofilm; type: cell-based, Staphylococcus aureus; details: for MBIC: lowest concentration inhibiting at least 90% of biofilm formation; for MBEC: minimum concentration eradicating at least 99% of the biofilm
Excerpt: (§2) The minimum bactericidal concentration (MBC) is defined as the lowest antibiotic concentration that kills 99.9% of the inoculum. The minimum biofilm inhibitory concentration (MBIC) is the lowest concentration that inhibits at least 90% of the formation of biofilm. The minimum biofilm eradication concentration (MBEC) is the minimum concentration that can eradicate at least 99% of the biofilm. In addition to the eight microorganisms described previously, this experiment was also applied to P. aeruginosa (ATCC 27853, ATCC BAA-2108, P. aeruginosa 01, P. aeruginosa 14).

[9] = system: MRSA NCTC 12493 biofilm; type: cell-based, methicillin-resistant Staphylococcus aureus; details: for MBIC: lowest concentration inhibiting at least 90% of biofilm formation; for MBEC: minimum concentration eradicating at least 99% of the biofilm
Excerpt: as §2

[10] = system: E. faecalis NCTC 12697 biofilm; type: cell-based, Enterococcus faecalis; details: for MBIC: lowest concentration inhibiting at least 90% of biofilm formation; for MBEC: minimum concentration eradicating at least 99% of the biofilm
Excerpt: as §2

[11] = system: K. pneumoniae ATCC 43816 biofilm; type: cell-based, Klebsiella pneumoniae; details: for MBIC: lowest concentration inhibiting at least 90% of biofilm formation; for MBEC: minimum concentration eradicating at least 99% of the biofilm
Excerpt: as §2

[12] = system: P. aeruginosa 01 biofilm; type: cell-based, Pseudomonas aeruginosa; details: for MBIC: lowest concentration inhibiting at least 90% of biofilm formation; for MBEC: minimum concentration eradicating at least 99% of the biofilm
Excerpt: as §2

[13] = system: P. aeruginosa 14 biofilm; type: cell-based, Pseudomonas aeruginosa; details: for MBIC: lowest concentration inhibiting at least 90% of biofilm formation; for MBEC: minimum concentration eradicating at least 99% of the biofilm
Excerpt: as §2

[14] = system: P. aeruginosa ATCC 27853 biofilm; type: cell-based, Pseudomonas aeruginosa; details: for MBIC: lowest concentration inhibiting at least 90% of biofilm formation; for MBEC: minimum concentration eradicating at least 99% of the biofilm
Excerpt: as §2

[15] = system: P. aeruginosa ATCC BAA-2108 biofilm; type: cell-based, Pseudomonas aeruginosa; details: for MBIC: lowest concentration inhibiting at least 90% of biofilm formation; for MBEC: minimum concentration eradicating at least 99% of the biofilm
Excerpt: as §2

[16] = system: P. aeruginosa ATCC CRM 9027 biofilm; type: cell-based, Pseudomonas aeruginosa; details: for MBIC: lowest concentration inhibiting at least 90% of biofilm formation; for MBEC: minimum concentration eradicating at least 99% of the biofilm
Excerpt: as §2

[17] = system: A. baumannii BAA 747 biofilm; type: cell-based, Acinetobacter baumannii; details: for MBIC: lowest concentration inhibiting at least 90% of biofilm formation; for MBEC: minimum concentration eradicating at least 99% of the biofilm
Excerpt: as §2

## CO/N=C(\C(=O)N[C@@H]1C(=O)N2C(C(=O)[O-])=C(C[N+]3(C)CCCC3)CS[C@H]12)c1csc(N)n1 [Cefepime, reference compound]
[1]
  MIC: 32 µM (≈ 15.4 µg/mL)
  MBC: 64 µM (≈ 30.8 µg/mL)
[2]
  MIC: 16 µM (≈ 7.69 µg/mL)
  MBC: 32 µM (≈ 15.4 µg/mL)
[3]
  MIC: 128 µM (≈ 61.5 µg/mL)
  MBC: > 128 µM
[4]
  MIC: 8 µM (≈ 3.84 µg/mL)
  MBC: 16 µM (≈ 7.69 µg/mL)
[5]
  MIC: 128 µM (≈ 61.5 µg/mL)
  MBC: > 128 µM
[6]
  MIC: 2 µM (≈ 0.961 µg/mL)
  MBC: 2 µM (≈ 0.961 µg/mL)
[7]
  MIC: 1 µM (≈ 0.481 µg/mL)
  MBC: 2 µM (≈ 0.961 µg/mL)
[8]
  MBIC: 4 µM
  MBEC: 8 µM
[9]
  MBIC: >128/>128 µM
  MBEC: >128/>128 µM
[10]
  MBIC: >128/>128 µM
  MBEC: >128/>128 µM
[11]
  MBIC: >128/>128 µM
  MBEC: >128/>128 µM
[12]
  MBIC: 4 µM
  MBEC: > 128 µM
[13]
  MBIC: 8 µM
  MBEC: > 128 µM
[14]
  MBIC: 2 µM
  MBEC: 4 µM
[15]
  MBIC: 64 µM
  MBEC: > 128 µM
[16]
  MBIC: >128/>128 µM
  MBEC: >128/>128 µM
[17]
  MBIC: 128/>128 µM
  MBEC: 128/>128 µM

## CNC(C)C1CCC(N)C(OC2C(N)CC(N)C(OC3OCC(C)(O)C(NC)C3O)C2O)O1 (centres unmarked) [Gentamicin, reference compound]
[1]
  MIC: 2 µM (≈ 0.955 µg/mL)
  MBC: 2 µM (≈ 0.955 µg/mL)
[2]
  MIC: 1 µM (≈ 0.478 µg/mL)
  MBC: 2 µM (≈ 0.955 µg/mL)
[3]
  MIC: 16 µM (≈ 7.64 µg/mL)
  MBC: 32 µM (≈ 15.3 µg/mL)
[4]
  MIC: 2 µM (≈ 0.955 µg/mL)
  MBC: 4 µM (≈ 1.91 µg/mL)
[5]
  MIC: 1 µM (≈ 0.478 µg/mL)
  MBC: 1 µM (≈ 0.478 µg/mL)
[6]
  MIC: 0.25 µM (≈ 0.119 µg/mL)
  MBC: 0.5 µM (≈ 0.239 µg/mL)
[7]
  MIC: > 128 µM
  MBC: > 128 µM
[8]
  MBIC: 8 µM
  MBEC: 16 µM
[9]
  MBIC: 2 µM
  MBEC: > 128 µM
[10]
  MBIC: >128/>128 µM
  MBEC: >128/>128 µM
[11]
  MBIC: 32/32 µM
  MBEC: 32/32 µM
[12]
  MBIC: 4 µM
  MBEC: 8 µM
[13]
  MBIC: 2 µM
  MBEC: 4 µM
[14]
  MBIC: 4 µM
  MBEC: > 128 µM
[15]
  MBIC: 16 µM
  MBEC: 128 µM
[16]
  MBIC: 2 µM
  MBEC: 4 µM
[17]
  MBIC: 8 µM
  MBEC: 16 µM
